Data from PMC9144402, “An Octopus-Derived Peptide with Antidiuretic Activity in Rats” (Marine Drugs, 2022).

Assays:
Octopus vulgaris = settings: same species (Octopus vulgaris); ref [20]; cited from earlier work
Text: (§1) These genes produce active nonapeptides, which are named octopressin (OTP) and cephalotocin (CPT). […] OTP was also reported to evoke hyperactivity in chromatophore cells, ra ...

[1] = tested on: oviduct, aorta, and rectum; settings: in vitro preparations of oviduct, ref [18]; cited from earlier work
Text: as §1

[2] = tested on: common cuttlefish (Sepia officinalis); settings: ref [22]; cited from earlier work
Text: as §1

O. ocellatus = settings: ref [21]; cited from earlier work
Text: as §1

human V1bR [3] = target: T1, human V1bR (Homo sapiens, UniProt P47901); experiment: V1bR functional assay, agonist effect (intracellular Ca^2+ increase, fluorimetry, RBL cells); type: cell-based; settings: up to 50 μM; RBL; RT; fluorimetry; % of control response (0.1 µM AVP); triplicate
T1 construct: host or cells: RBL
T1 sequence (P47901 1-424): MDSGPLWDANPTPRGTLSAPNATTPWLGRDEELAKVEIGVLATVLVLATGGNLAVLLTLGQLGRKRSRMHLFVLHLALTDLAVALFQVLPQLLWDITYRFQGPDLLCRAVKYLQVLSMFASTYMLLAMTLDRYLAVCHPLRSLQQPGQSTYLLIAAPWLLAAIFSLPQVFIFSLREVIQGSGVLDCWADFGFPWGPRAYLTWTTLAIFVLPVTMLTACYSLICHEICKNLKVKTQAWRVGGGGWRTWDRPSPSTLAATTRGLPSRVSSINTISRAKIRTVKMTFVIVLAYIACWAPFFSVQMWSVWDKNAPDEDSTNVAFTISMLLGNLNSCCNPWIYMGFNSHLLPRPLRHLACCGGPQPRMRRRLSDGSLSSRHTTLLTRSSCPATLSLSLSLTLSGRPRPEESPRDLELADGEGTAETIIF
Protocol: (§2) Detailed information about the cells tested and other experimental conditions are described in Table 2. Briefly, cells were transfected with a recombinant expression vector capable of expressing each type of human OXT/AVP receptor. To evaluate the agonist effects on OXTR, V1aR, and V1bR, the intracellular Ca^2+ increase after treatment with OTP or CPT was measured by fluorimetry. […] For V2R receptors, cells were treated with peptides with or without the stimulant for 30 min. After that, cyclic AMP (cAMP) concentrations were measured by homogeneous time-resolved fluorescence (HTRF). The results were represented as the percent submaximal response achieved by the stimulant. All experiments were performed in triplicate. Data are presented as the mean ± standard error of the mean. The 50% effective concentration (EC50) and 50% inhibitory concentration (IC50) values were determined using a 4-parameter logistic fitting of a dose–response curve using SigmaPlot 10.0 (Systat Software, Palo Alto, CA, USA).

human V2R [4] = target: T2, human V2R (Homo sapiens, UniProt P30518); experiment: V2R functional assay, antagonist effect (0.03 nM AVP-induced cAMP, HTRF, CHO cells); type: cell-based; settings: all concentrations tested, stimulant 0.03 nM AVP, 30 min RT, triplicate
T2 construct: host or cells: CHO
Protocol: as §2

human V1aR [5] = target: T3, human V1aR (Homo sapiens, UniProt P37288); experiment: V1aR functional assay, agonist effect (intracellular Ca^2+ increase, fluorimetry, CHO cells); type: cell-based; settings: up to 50 μM, RT, % of control response (1 µM AVP), triplicate
T3 construct: host or cells: CHO
Protocol: as §2

human OXTR [6] = target: T4, human OXTR (Homo sapiens, UniProt P30559); experiment: OXTR functional assay, agonist effect (intracellular Ca^2+ increase, fluorimetry, transfected ECV304 cells); type: cell-based; settings: up to 50 μM, RT, % of control response (1 µM OXT), triplicate
T4 construct: host or cells: ECV304
T4 sequence (P30559 1-389): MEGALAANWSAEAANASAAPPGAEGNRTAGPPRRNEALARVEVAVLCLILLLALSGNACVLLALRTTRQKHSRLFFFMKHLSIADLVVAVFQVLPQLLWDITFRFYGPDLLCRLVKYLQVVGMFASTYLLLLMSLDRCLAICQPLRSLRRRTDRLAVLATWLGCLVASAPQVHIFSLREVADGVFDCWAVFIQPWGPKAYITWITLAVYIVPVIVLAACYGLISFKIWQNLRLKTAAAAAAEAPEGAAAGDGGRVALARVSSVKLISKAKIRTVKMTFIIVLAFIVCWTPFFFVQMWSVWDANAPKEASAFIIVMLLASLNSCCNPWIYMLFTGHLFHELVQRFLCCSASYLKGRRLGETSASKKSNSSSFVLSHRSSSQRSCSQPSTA
Protocol: as §2

human V1aR [7] = target: T3, human V1aR; experiment: V1aR functional assay, antagonist effect (10 nM AVP-induced intracellular Ca^2+, fluorimetry, CHO cells); type: cell-based; settings: all concentrations tested; CHO; stimulant 10 nM AVP; RT; fluorimetry; triplicate
Protocol: as §2

human V2R [8] = target: T2, human V2R; experiment: V2R functional assay, agonist effect (cAMP accumulation, HTRF, CHO cells); type: cell-based; settings: 50 μM; CHO; 30 min RT; HTRF; % of control response (1 nM AVP); triplicate
Protocol: as §2

human V1bR [9] = target: T1, human V1bR; experiment: V1bR functional assay, antagonist effect (5 nM AVP-induced intracellular Ca^2+, fluorimetry, RBL cells); type: cell-based; settings: all concentrations tested, stimulant 5 nM AVP, RT, triplicate
Protocol: as §2

human OXTR [10] = target: T4, human OXTR; experiment: OXTR functional assay, antagonist effect (30 nM OXT-induced intracellular Ca^2+, fluorimetry, ECV304 cells); type: cell-based; settings: 50 μM; ECV304; stimulant 30 nM OXT; RT; fluorimetry; triplicate
Protocol: as §2

T3 sequence (P37288 whole entry): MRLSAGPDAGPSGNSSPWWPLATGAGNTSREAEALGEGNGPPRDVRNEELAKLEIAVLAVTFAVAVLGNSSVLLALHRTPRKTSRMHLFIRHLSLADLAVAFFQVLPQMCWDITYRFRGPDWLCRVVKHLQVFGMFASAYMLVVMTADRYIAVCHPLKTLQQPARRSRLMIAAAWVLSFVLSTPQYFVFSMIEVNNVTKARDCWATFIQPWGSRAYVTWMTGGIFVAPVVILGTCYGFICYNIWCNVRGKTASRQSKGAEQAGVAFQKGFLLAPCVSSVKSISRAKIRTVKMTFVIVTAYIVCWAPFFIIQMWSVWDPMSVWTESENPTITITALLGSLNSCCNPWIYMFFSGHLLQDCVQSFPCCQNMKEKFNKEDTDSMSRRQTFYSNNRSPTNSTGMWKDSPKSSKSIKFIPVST

CYWTSCPIG-NH2 (disulfide bond) (disulfide) [OTP, octopressin, natural OXT/AVP analog from Octopus vulgaris, synthesized by solid-phase peptide synthesis]
behavioral effect (Octopus vulgaris): hyperactivity in chromatophore cells, rapid respiration, and jetting water from the siphon | effect on peripheral tissues [1]: induced contractions | effect on long-term memory [2]: affect long-term memory | hemolymph osmolality (O. ocellatus): decreases hemolymph osmolality | V1bR-mediated intracellular Ca^2+ increase (agonist effect) (human V1bR [3]): did not seem to induce | antagonist effect against V2R activation (human V2R [4]): could not inhibit | V1aR-mediated intracellular Ca^2+ increase (agonist effect) (human V1aR [5]): did not seem to induce | OXTR-mediated intracellular Ca^2+ increase (agonist effect) (human OXTR [6]): did not seem to induce | antagonist effect against V1aR activation (human V1aR [7]): could not inhibit | V2R-mediated cAMP accumulation (agonist effect) (human V2R [8]): < 30% | antagonist effect against V1bR activation (human V1bR [9]): could not inhibit | inhibition rate of OXTR activation (human OXTR [10]): approximately 30%
